The source made the active and inactive calls. The rule behind the calls is not given here.
Key:
[1] = system: Rhizopus; assay: Antifungal activity against Rhizopus at 100 ppm after 72 to 96 hr by disk diffusion method; format: functional
[2] = system: Mucor; assay: Antifungal activity against Mucor at 100 ppm after 72 to 96 hr by disk diffusion method; format: functional
[3] = system: Pseudomonas; assay: Antibacterial activity against Pseudomonas at 500 ppm after 24 hr by disk diffusion method; format: functional; conditions: read-out: IZ
[4] = system: Streptococcus; assay: Antibacterial activity against beta-hemolytic Streptococcus at 100 ppm after 24 hr by disk diffusion method; format: functional, organism-based
[5] = system: Klebsiella pneumoniae; assay: Antibacterial activity against Klebsiella pneumoniae at 100 ppm after 24 hr by disk diffusion method; format: functional; conditions: read-out: IZ
[6] = system: Staphylococcus aureus; assay: Antibacterial activity against Staphylococcus aureus at 500 ppm after 24 hr by disk diffusion method; format: functional; conditions: read-out: IZ
[7] = system: Shigella flexneri; assay: Antibacterial activity against Shigella flexneri at 200 ppm after 24 hr by disk diffusion method; format: functional; conditions: read-out: IZ
[8] = system: Pseudomonas; assay: Antibacterial activity against Pseudomonas at 200 ppm after 24 hr by disk diffusion method; format: functional; conditions: read-out: IZ
[9] = system: Vibrio cholerae; assay: Antibacterial activity against Vibrio cholerae at 500 ppm after 24 hr by disk diffusion method; format: functional; conditions: read-out: IZ
[10] = system: Streptococcus; assay: Antibacterial activity against beta-hemolytic Streptococcus at 500 ppm after 24 hr by disk diffusion method; format: functional; conditions: read-out: IZ
[11] = system: Aspergillus flavus; assay: Antifungal activity against Aspergillus flavus at 200 ppm after 72 to 96 hr by disk diffusion method; format: functional; conditions: read-out: IZ
[12] = system: Shigella flexneri; assay: Antibacterial activity against Shigella flexneri at 100 ppm after 24 hr by disk diffusion method; format: functional; conditions: read-out: IZ
[13] = system: Streptococcus; assay: Antibacterial activity against beta-hemolytic Streptococcus at 200 ppm after 24 hr by disk diffusion method; format: functional; conditions: read-out: IZ
[14] = system: Aspergillus flavus; assay: Antifungal activity against Aspergillus flavus at 500 ppm after 72 to 96 hr by disk diffusion method; format: functional; conditions: read-out: IZ
[15] = system: Klebsiella pneumoniae; assay: Antibacterial activity against Klebsiella pneumoniae at 200 ppm after 24 hr by disk diffusion method; format: functional; conditions: read-out: IZ
[16] = system: Vibrio cholerae; assay: Antibacterial activity against Vibrio cholerae at 100 ppm after 24 hr by disk diffusion method; format: functional; conditions: read-out: IZ
[17] = system: Shigella flexneri; assay: Antibacterial activity against Shigella flexneri at 500 ppm after 24 hr by disk diffusion method; format: functional; conditions: read-out: IZ
[18] = system: Staphylococcus aureus; assay: Antibacterial activity against Staphylococcus aureus at 200 ppm after 24 hr by disk diffusion method; format: functional; conditions: read-out: IZ
[19] = system: Escherichia coli; assay: Antibacterial activity against Escherichia coli at 200 ppm after 24 hr by disk diffusion method; format: functional; conditions: read-out: IZ
[20] = system: Staphylococcus aureus; assay: Antibacterial activity against Staphylococcus aureus at 100 ppm after 24 hr by disk diffusion method; format: functional
[21] = system: Rhizopus; assay: Antifungal activity against Rhizopus at 200 ppm after 72 to 96 hr by disk diffusion method; format: functional; conditions: read-out: IZ
[22] = system: Salmonella typhi; assay: Antibacterial activity against Salmonella enterica subsp. enterica serovar Typhi at 500 ppm after 24 hr by disk diffusion method; format: functional; conditions: read-out: IZ
[23] = system: Vibrio cholerae; assay: Antibacterial activity against Vibrio cholerae at 200 ppm after 24 hr by disk diffusion method; format: functional; conditions: read-out: IZ
[24] = system: Mucor; assay: Antifungal activity against Mucor at 500 ppm after 72 to 96 hr by disk diffusion method; format: functional; conditions: read-out: IZ
[25] = system: Aspergillus flavus; assay: Antifungal activity against Aspergillus flavus at 100 ppm after 72 to 96 hr by disk diffusion method; format: functional; conditions: read-out: IZ
[26] = system: Salmonella typhi; assay: Antibacterial activity against Salmonella enterica subsp. enterica serovar Typhi at 200 ppm after 24 hr by disk diffusion method; format: functional; conditions: read-out: IZ
[27] = system: Nannizzia gypsea; assay: Antifungal activity against Microsporum gypseum at 200 ppm after 72 to 96 hr by disk diffusion method; format: functional; conditions: read-out: IZ
[28] = system: Escherichia coli; assay: Antibacterial activity against Escherichia coli at 500 ppm after 24 hr by disk diffusion method; format: functional; conditions: read-out: IZ
[29] = system: Mucor; assay: Antifungal activity against Mucor at 200 ppm after 72 to 96 hr by disk diffusion method; format: functional; conditions: read-out: IZ
[30] = system: Nannizzia gypsea; assay: Antifungal activity against Microsporum gypseum at 500 ppm after 72 to 96 hr by disk diffusion method; format: functional; conditions: read-out: IZ
[31] = system: Salmonella typhi; assay: Antibacterial activity against Salmonella enterica subsp. enterica serovar Typhi at 100 ppm after 24 hr by disk diffusion method; format: functional; conditions: read-out: IZ
[32] = system: Nannizzia gypsea; assay: Antifungal activity against Microsporum gypseum at 100 ppm after 72 to 96 hr by disk diffusion method; format: functional; conditions: read-out: IZ
[33] = system: Klebsiella pneumoniae; assay: Antibacterial activity against Klebsiella pneumoniae at 500 ppm after 24 hr by disk diffusion method; format: functional; conditions: read-out: IZ
[34] = system: Escherichia coli; assay: Antibacterial activity against Escherichia coli at 100 ppm after 24 hr by disk diffusion method; format: functional, organism-based
[35] = system: Pseudomonas; assay: Antibacterial activity against Pseudomonas at 100 ppm after 24 hr by disk diffusion method; format: functional
[36] = system: Rhizopus; assay: Antifungal activity against Rhizopus at 500 ppm after 72 to 96 hr by disk diffusion method; format: functional; conditions: read-out: IZ

SMILES | zone of inhibition at 500 ppm [3] | inhibition zone (IZ) [4] | zone of inhibition at 100 ppm [5] | zone of inhibition at 500 ppm [6] | zone of inhibition at 200 ppm [7] | zone of inhibition at 200 ppm [8] | zone of inhibition at 500 ppm [9] | zone of inhibition at 500 ppm [10] | zone of inhibition at 200 ppm [11] | zone of inhibition at 100 ppm [12] | zone of inhibition at 200 ppm [13] | zone of inhibition at 500 ppm [14] | zone of inhibition at 200 ppm [15] | zone of inhibition at 100 ppm [16] | zone of inhibition at 500 ppm [17] | zone of inhibition at 200 ppm [18] | zone of inhibition at 200 ppm [19] | zone of inhibition at 200 ppm [21] | zone of inhibition at 500 ppm [22] | zone of inhibition at 200 ppm [23] | further results
Cc1ccc(C2NC(c3ccc(C)cc3)C(C)(C)c3nnsc32)cc1 (configuration not stated) | 12 mm | inactive | 17 mm | 30 mm | 17 mm | 12 mm | 17 mm | 30 mm | 12 mm | 12 mm | 17 mm | 12 mm | 17 mm | 12 mm | 17 mm | 22 mm | 12 mm | 17 mm | 12 mm | 17 mm | zone of inhibition at 100 ppm ([1]; read-out: IZ): 12 mm; inhibition zone (IZ) [2]: inactive; inhibition zone (IZ) [20]: inactive; zone of inhibition at 500 ppm [24]: 17 mm; zone of inhibition at 100 ppm [25]: 12 mm; zone of inhibition at 200 ppm [26]: 12 mm; zone of inhibition at 200 ppm [27]: 22 mm; zone of inhibition at 500 ppm [28]: 17 mm; zone of inhibition at 200 ppm [29]: 17 mm; zone of inhibition at 500 ppm [30]: 30 mm; zone of inhibition at 100 ppm [31]: 12 mm; zone of inhibition at 100 ppm [32]: 17 mm; zone of inhibition at 500 ppm [33]: 22 mm; inhibition zone (IZ) [34]: inactive; inhibition zone (IZ) [35]: inactive; zone of inhibition at 500 ppm [36]: 22 mm
COc1ccc(C2NC(c3ccc(OC)cc3)C(C)(C)c3nnsc32)cc1 (configuration not stated) | 12 mm | inactive | 17 mm | 30 mm | 17 mm | 12 mm | 17 mm | 30 mm | 12 mm | 12 mm | 12 mm | 17 mm | 17 mm | 12 mm | 17 mm | 22 mm | 17 mm | 12 mm | 17 mm | 17 mm | inhibition zone (IZ) [1]: inactive; zone of inhibition at 100 ppm ([2]; read-out: IZ): 12 mm; zone of inhibition at 100 ppm ([20]; read-out: IZ): 12 mm; zone of inhibition at 500 ppm [24]: 17 mm; zone of inhibition at 100 ppm [25]: 12 mm; zone of inhibition at 200 ppm [26]: 17 mm; zone of inhibition at 200 ppm [27]: 17 mm; zone of inhibition at 500 ppm [28]: 17 mm; zone of inhibition at 200 ppm [29]: 17 mm; zone of inhibition at 500 ppm [30]: 30 mm; zone of inhibition at 100 ppm [31]: 12 mm; zone of inhibition at 100 ppm [32]: 12 mm; zone of inhibition at 500 ppm [33]: 22 mm; inhibition zone (IZ) [34]: inactive; inhibition zone (IZ) [35]: inactive; zone of inhibition at 500 ppm [36]: 22 mm

— ChEMBL document CHEMBL3045391, “Synthesis and biological evaluation of 5,7-diaryl-4,4-dimethyl-4,5,6,7-tetrahydropyridino[3,4-d]-1,2,3-thiadiazoles” (2007)
